PubChem BioAssay AID489006 (Sanford-Burnham Center for Chemical Genomics, 2010)
Activity calls are given as the source filed them. How the calls were made is not given here.

Test system: Jurkat NF-kB reporter, luminescence
Experiment: Jurkat NF-kB signaling inhibitors – cell-based, luminescence, selectivity assay for B-cell receptor NF-kB inhibitor project, dose response (AID 489006)

SMILES | IC50
Cc1ccc(-c2nn3c(C)nnc3c3ccccc23)cc1S(=O)(=O)NCc1ccco1 | 46.7 µM (inactive)
N=c1c(C(=O)NC2CCCC2)cc2c(=O)n3ccccc3nc2n1CCN1CCOCC1 | > 80 µM (inactive)
CCC(=O)N(C1=C(NC)C(=O)c2ccccc2C1=O)C(C)C | 45.8 µM (inactive)
CC(C)[C@H](N)c1nnc(SCC(=O)c2ccc(Cl)cc2)o1 | > 80 µM (inactive)
Cc1c(CCC(=O)O)c(=O)oc2cc3oc4c(c3cc12)CCCC4 | 7.43 µM
Cc1ccc(C(=O)OCC(=O)N(CC(C)C)c2c(N)n(Cc3ccccc3)c(=O)[nH]c2=O)o1 | > 80 µM (inactive)
CC(C)C[C@@H](N)c1nnc(SCC(=O)c2ccc(Cl)cc2)o1 | 11.3 µM
CC1CCN(CCCNC(=O)COc2cc(=O)n(C)c3ccccc23)CC1 | > 80 µM (inactive)
O=C(Nc1cccc(Oc2ccc3c(c2)C(=O)NC3=O)c1)c1cccs1 | > 80 µM (inactive)
CCCS(=O)(=O)Nc1cccc(-c2ccc3nnc(C)n3n2)c1 | > 80 µM (inactive)
CCCCn1c2c(c(=N)c3ccccc31)CCC2 | > 80 µM (inactive)
C(=N\Nc1nc(Nc2ccccc2)nc(N2CCOCC2)n1)/c1c[nH]c2ccccc12 | 37.7 µM (inactive)
CCOC(=O)Cc1csc(NC(=S)NC(=O)c2ccc(Cl)cc2)n1 | 3.85 µM
CC1=CC(C)(C)Nc2ccc(OC(=O)C(C)N3C(=O)c4ccccc4C3=O)cc21 (stereo not drawn) | 1.19 µM
Cc1cc(C)c(S(=O)(=O)NCc2ccncc2)c(C)c1 | > 80 µM (inactive)
Cc1ccc(O)c(NC(=O)COc2cc(C)ccc2C)c1 | > 80 µM (inactive)
COc1cc(NC(=O)c2cc3c(C)nc4ccccc4c3o2)cc(OC)c1OC | > 80 µM (inactive)
O=C(CN1C(=O)c2ccccc2S1(=O)=O)c1ccccc1Cl | 1.26 µM
O=C(N/N=C/c1ccc(Cl)cc1Cl)c1ccc(-n2cnnn2)cc1 | > 80 µM (inactive)
CCCCCOc1ccc(NC(=O)C(=O)NCCCn2ccnc2)cc1 | > 80 µM (inactive)
Cc1nc2ccccn2c1C(=O)/C=C/c1cccc([N+](=O)[O-])c1 | 4.57 µM
Cn1c(=O)c2c(SCC(=O)Nc3ccccc3F)nc(-c3ccccc3F)nc2n(C)c1=O | > 80 µM (inactive)
COc1ccc(NC(=S)NCc2ccccc2)c(OC)c1 | > 80 µM (inactive)
CCc1cccc(NC(=O)c2ccc(CNc3c(N4CCCC4)c(=O)c3=O)cc2)c1 | > 80 µM (inactive)
COc1ccc(-c2ccc(C)cc2)cc1[C@H]1[C@H]2C=CC[C@@H](C)[C@@H]2C(=O)N1Cc1ccccc1 | > 80 µM (inactive)

SMILES | IC50
COc1ccc(-c2noc(CCCC(=O)O)n2)cc1 | 1.4 µM
Cc1cc(C)cc(NC(=O)c2nnn(Cc3cc(C)ccc3C)c2N)c1 | > 80 µM (inactive)
COc1ccc(/C=C2\SC(=S)N(CCC(=O)Nc3ccc(O)cc3)C2=O)cc1 | > 80 µM (inactive)
O=C(Nc1ccccc1C(=O)Nc1nnc(C(F)(F)F)s1)c1ccccc1 | > 80 µM (inactive)
N=c1ccn2c(n1)O[C@H]1[C@H](O)[C@@H](CO)O[C@H]12 | 0.64 µM
CN1C(=O)CSc2ccc(NC(=O)N3CCN(c4ccccc4)CC3)cc21 | > 80 µM (inactive)
CCOc1ccc(-c2noc(CCC(=O)O)n2)cc1 | 0.7 µM
CC(C)OCCCNC(=O)c1c(N)n(/N=C/c2ccccn2)c2nc3ccccc3nc12 | 40.2 µM (inactive)
Cc1nc2cc(-c3ccccc3)nn2c(C)c1CCC(=O)NCc1ccco1 | > 80 µM (inactive)
COc1ccccc1/C=C1\SC(=S)N(CCC(=O)Nc2cc(C)on2)C1=O | 54.7 µM (inactive)
Cc1c(CC(=O)NCCCC(=O)O)c(=O)oc2cc3c(cc12)CCC(C)(C)O3 | 4.17 µM
COc1ccc(/C=N\NC(=O)c2sccc2C)cc1Cn1nc(C)cc1C | > 80 µM (inactive)
c1ccc(CCNc2ncnc3ccccc23)cc1 | 64.2 µM (inactive)
CCCCCCn1c(-c2ccco2)nc2oc3cc(OC)ccc3c(=O)c2c1=O | > 80 µM (inactive)
Cc1nn(C(C)(C)C)c(C)c1/C=N/OC(=O)Nc1ccc(Cl)c(Cl)c1 | 0.208 µM
Cc1c(CCC(=O)N2CCC(C(=O)O)CC2)c(=O)oc2cc3oc4c(c3cc12)CCCC4 | > 80 µM (inactive)
COc1cc(C2C(C#N)=C(N)Oc3cc(N)ccc32)cc(OC)c1OC (stereo not drawn) | > 80 µM (inactive)
CCOc1ccc(-c2cc(CCCC(=O)NCc3ccc(C)cc3)no2)cc1 | 6.59 µM
CCn1c(=O)cc(OCC(=O)NCc2ccc(C)o2)c2ccccc21 | > 80 µM (inactive)
O=C(CSCCO)Nc1ccc(C23CC4CC(CC(C4)C2)C3)cc1 | > 80 µM (inactive)
COCCCn1c(=O)/c(=C\c2cccc(OC)c2OC)s/c1=C(/C#N)C(=O)Nc1ccc(C(=O)O)cc1 | > 80 µM (inactive)
Cn1c(=O)n(C)c2cc(NC(=O)CSc3nnc(-c4ccccc4O)n3-c3ccccc3)ccc21 | 50.1 µM (inactive)
Cc1ccc(C2(c3ccc(C)cc3)CC2C(=O)Nc2ccc([N+](=O)[O-])cc2O)cc1 (stereo not drawn) | 50.1 µM (inactive)
Cc1nc2cc(-c3ccc(Cl)cc3)nn2c(C)c1CCC(=O)NCc1ccco1 | 0.34 µM
CCc1ccc(/C=C2/SC(=S)N(CCC(=O)Nc3ccc(C(=O)O)cc3)C2=O)cc1 | > 80 µM (inactive)

SMILES | IC50
CCN(CC)c1ccc(/C=C2/C(=O)ON=C2C)cc1 | 19.3 µM
Cc1ccc(S(=O)(=O)N2CCCCC2CCNC(=O)C(=O)NCc2ccncc2)cc1 (stereo not drawn) | > 80 µM (inactive)
COc1ccc(-c2nsc(SCC(=O)Nc3cc(C)on3)n2)cc1 | > 80 µM (inactive)
Nc1ccc(-c2cc3ccccc3oc2=O)cc1 | 0.24 µM
CC1CCN(c2c(NCc3ccc(C(=O)N4c5ccccc5CC4C)cc3)c(=O)c2=O)CC1 (stereo not drawn) | > 80 µM (inactive)
O=C(C1CCC1)N1CCN(S(=O)(=O)c2ccc([N+](=O)[O-])cc2)CC1 | > 80 µM (inactive)
Cc1cc(=O)[nH]c2c(C)cc(S(=O)(=O)N3CCCCC3)cc12 | > 80 µM (inactive)
COc1ccc(/C=C2/SC(=S)N(CCCC(=O)Nc3ccc(O)cc3)C2=O)cc1 | > 80 µM (inactive)
CCN(CC(=O)Nc1c(F)cccc1F)C(=O)c1cc(S(=O)(=O)N2CCOCC2)ccc1N1CCCC1 | > 80 µM (inactive)
CCc1ccc(/C=C2\SC(=S)N(CCC(=O)NC3=NCCS3)C2=O)cc1 | 1.3 µM
CCN(CC(=O)Nc1c(F)cccc1F)C(=O)c1cc(S(=O)(=O)N(C)C)ccc1N1CCCC1 | > 80 µM (inactive)
CCN(CC)c1ccc(/C=N/N=C(c2ccccc2)c2ccccc2)c(O)c1 | > 80 µM (inactive)
CCOc1ccc(-c2nc(CSCC(=O)NC3CC3)c(C)o2)cc1 | > 80 µM (inactive)
CCCC(=O)Nc1ccc(Sc2ccc([N+](=O)[O-])cc2)cc1 | 15.9 µM
C=CCn1c(O)c(C(CC)=NC(C)c2ccccc2)c(=O)[nH]c1=O (stereo not drawn) | 51.3 µM (inactive)
Cc1cc(OCC(=O)NC2CC2)c2c(C)c(C)c(=O)oc2c1 | > 80 µM (inactive)
Nc1ccccc1SCC(=O)Nc1nc(-c2ccccc2)cs1 | > 80 µM (inactive)
O=C(O)CCn1c(O)c(C=C2N=c3ccccc3=N2)sc1=S | 1.46 µM
CCCc1nc2c(C)cc(-c3nc4ccccc4n3C)cc2n1Cc1ccc(-c2ccccc2C(=O)O)cc1 | > 80 µM (inactive)
CCN(CC(=O)Nc1c(F)cccc1F)C(=O)c1cc(S(=O)(=O)N(CC)CC)ccc1N1CCCCC1 | > 80 µM (inactive)
C#CCN(Cc1ccccc1)S(=O)(=O)C=C | 9.39 µM
COc1ccc(C(C(=O)NC2CCCCC2)N(C(=O)CCl)c2ccc(Cl)cc2)cc1 (stereo not drawn) | 0.47 µM
CCn1c(=O)cc(SCC(=O)N2CCCCC2)c2ccccc21 | > 80 µM (inactive)
O=C(CCCN1C(=O)S/C(=C/C=C/c2ccccc2)C1=O)Nc1ccc(C(=O)O)cc1 | > 80 µM (inactive)
COc1ccc(NC(=O)c2cc3c(Cl)nc4ccccc4c3s2)cc1OC | 61.9 µM (inactive)

SMILES | IC50
COc1ccc(-c2noc(N3CCC(C(=O)Nc4ccc(F)cc4F)CC3)n2)cc1 | > 80 µM (inactive)
Cn1c(=O)cc(OCCCC(=O)NC2CCCC2)c2ccccc21 | 39.5 µM (inactive)
Cc1ccc(CSc2nnc(SCC(=O)N/N=C/C=C/c3ccccc3[N+](=O)[O-])s2)cc1 | 67 µM (inactive)
CCn1c(=O)cc(OCC(=O)N(C)C2CCCCC2)c2ccccc21 | > 80 µM (inactive)
Cc1ccc(C(=O)N2CCCC(c3ccc(Cl)cc3)=N2)cc1 | > 80 µM (inactive)
Cc1ccc(-c2c[n+]3c(n2-c2ccccc2)SCC3)cc1 | > 80 µM (inactive)
CCn1c(=O)cc(SCC(=O)N2CCC3(CC2)OCCO3)c2ccccc21 | > 80 µM (inactive)
CCOC(=O)N1CCN(c2ncnc3c2[nH]c2ccc(OC)cc23)CC1 | 61 µM (inactive)
CCOC(=O)/C=C(\C)Sc1cc(=O)oc2ccccc12 | 4 µM
CCCNC(=O)CSCc1nc(-c2ccc(SC)cc2)oc1C | > 80 µM (inactive)
COc1ccc(-n2c(-c3ccc(Cl)cc3)c[n+]3c2CCc2ccccc2-3)cc1 | 28.6 µM (inactive)
COC(=O)[C@@H]1Cc2c([nH]c3ccccc23)C(C)(C)N1C(=O)CCl | 1.73 µM
CCn1c(CN2CCN(c3ccc(Cl)cc3)CC2)nc2ccccc21 | 39.9 µM (inactive)
COc1ccc(NS(=O)(=O)c2cc(NC(=O)c3cc(=O)c4ccccc4o3)ccc2OC)cc1 | > 80 µM (inactive)
O=C(CCCN1C(=O)/C(=C/c2ccccc2Cl)SC1=S)NNC(=O)c1ccc(Cl)cc1Cl | 0.76 µM
COc1cc(C[C@@H]2C(=O)OC[C@H]2Cc2ccc(OC)c(OC)c2)ccc1O | > 80 µM (inactive)
COc1cccc(-c2noc(CCC(=O)NCCc3ccccc3)n2)c1 | 29.8 µM (inactive)
COc1ccc(C(=O)Nc2cccc(NC(=O)c3ccc(OC)c(OC)c3)n2)cc1OC | 9.7 µM
COc1ccc2nc(Sc3c([N+](=O)[O-])nc(C)n3Cc3ccccc3)[nH]c2c1 | 12.2 µM
COc1ccc(OC)c(S(=O)(=O)Nc2ccc(-c3ccc4nnc(C)n4n3)cc2)c1 | 11.5 µM
CCN1C(=O)c2cccc3c(S(=O)(=O)Nc4ccccc4)ccc1c23 | 48.9 µM (inactive)
Oc1[nH]c2ccccc2c1N=Nc1nc(Nc2ccccc2)nc(N2CCOCC2)n1 | 9.4 µM
CC1Cc2ccccc2N1S(=O)(=O)c1cnc(Cl)c(Cl)c1 (stereo not drawn) | 31.6 µM (inactive)
